Assay results published in ChEMBL document CHEMBL1201862, “PubChem BioAssay data set” (2004).
Active and inactive are the calls of the source.

Assays:
[1] = target: T1, Polyadenylate-binding protein 1 (Homo sapiens, UniProt P11940); experiment: PABP1 MLLE–PAM2 interaction inhibitors, dose response, miRNA deadenylation inhibitor project, biochemical, fluorescence polarization, Cy5-PAM2 peptide, secondary (AID 602260); type: functional; details: read-out: IC50_Mean
[2] = target: T1, Polyadenylate-binding protein 1; experiment: PABP1 MLLE–PAM2 binding inhibitor potency, dose response, biochemical, fluorescence polarization, FITC-PAM2 peptide (AID 602259); type: functional; details: read-out: IC50_Mean
H9c2 = experiment: cells; type: functional, cell-based; details: Rattus norvegicus, H9c2, Myocardium
[3] = target: Glyceraldehyde-3-phosphate dehydrogenase (Homo sapiens, UniProt P04406)
Large T antigen = Large T antigen (Simian virus 40, UniProt P03070); type: functional, Betapolyomavirus macacae;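 note: Confirmatory-stage PubChem screen for compounds that inhibit SV40 T antigen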
[4] = target: T2, Microphthalmia-associated transcription factor (Homo sapiens, UniProt O75030); experiment: TRPM1 promoter luciferase signal decrease, dose response, MITF inhibitor project, cell-based, SK-MEL-5, cherry-picked, set 3 (AID 493073); type: functional
T2 sequence (O75030 whole entry): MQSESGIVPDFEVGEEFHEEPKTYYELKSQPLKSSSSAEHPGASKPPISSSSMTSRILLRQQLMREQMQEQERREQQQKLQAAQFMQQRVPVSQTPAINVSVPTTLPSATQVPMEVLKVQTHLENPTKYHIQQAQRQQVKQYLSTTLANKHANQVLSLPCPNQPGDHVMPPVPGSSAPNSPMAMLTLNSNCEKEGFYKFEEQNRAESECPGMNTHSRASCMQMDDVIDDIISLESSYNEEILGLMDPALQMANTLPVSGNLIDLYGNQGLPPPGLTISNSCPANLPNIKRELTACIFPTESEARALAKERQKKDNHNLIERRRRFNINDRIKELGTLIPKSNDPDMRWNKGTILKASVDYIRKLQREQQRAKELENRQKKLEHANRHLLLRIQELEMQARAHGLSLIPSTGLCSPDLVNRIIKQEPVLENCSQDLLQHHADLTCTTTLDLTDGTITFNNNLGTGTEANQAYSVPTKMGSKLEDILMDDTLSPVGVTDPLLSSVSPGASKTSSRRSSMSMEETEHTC

Cytochrome P450 2D6 = Cytochrome P450 2D6 (Homo sapiens, UniProt P10635);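 note: CYP2D6 member of a cytochrome P450 panel assay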
Cytochrome P450 3A4 = Cytochrome P450 3A4 (Homo sapiens, UniProt P08684);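 note: CYP3A4 tested as one member of a cytochrome P450 panel screen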
[5] = HEp-2 cell cytotoxicity, dose response, cytotoxicity control for RSV inhibitor project, HTS (AID 2410); type: functional; details: human respiratory syncytial virus
Cytochrome P450 1A2 = target: T3, Cytochrome P450 1A2 (Homo sapiens, UniProt P05177);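 note: PubChem cytochrome P450 panel assay, CYP1A2 panel member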
T3 sequence (P05177 whole entry): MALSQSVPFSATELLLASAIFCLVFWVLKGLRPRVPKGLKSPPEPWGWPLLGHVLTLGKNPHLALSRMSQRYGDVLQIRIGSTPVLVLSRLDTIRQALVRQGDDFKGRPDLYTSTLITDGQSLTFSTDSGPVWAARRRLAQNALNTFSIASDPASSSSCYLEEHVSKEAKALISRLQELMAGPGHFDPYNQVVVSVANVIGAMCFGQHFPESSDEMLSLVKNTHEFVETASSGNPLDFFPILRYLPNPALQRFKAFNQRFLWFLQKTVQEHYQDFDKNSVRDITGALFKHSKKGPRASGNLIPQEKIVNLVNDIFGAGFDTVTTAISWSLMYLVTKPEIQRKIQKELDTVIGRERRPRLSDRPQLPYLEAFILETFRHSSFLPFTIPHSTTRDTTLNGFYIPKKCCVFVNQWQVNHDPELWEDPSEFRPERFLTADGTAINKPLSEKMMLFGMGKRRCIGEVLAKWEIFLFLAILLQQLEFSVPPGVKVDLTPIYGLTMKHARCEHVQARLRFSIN

[6] = target: T4, High affinity choline transporter 1 (Homo sapiens, UniProt Q9GZV3); experiment: CHT inhibitors, dose response, cell-based, 5-point CRC, membrane potential dye (AID 504840); type: functional
T4 sequence (Q9GZV3 whole entry): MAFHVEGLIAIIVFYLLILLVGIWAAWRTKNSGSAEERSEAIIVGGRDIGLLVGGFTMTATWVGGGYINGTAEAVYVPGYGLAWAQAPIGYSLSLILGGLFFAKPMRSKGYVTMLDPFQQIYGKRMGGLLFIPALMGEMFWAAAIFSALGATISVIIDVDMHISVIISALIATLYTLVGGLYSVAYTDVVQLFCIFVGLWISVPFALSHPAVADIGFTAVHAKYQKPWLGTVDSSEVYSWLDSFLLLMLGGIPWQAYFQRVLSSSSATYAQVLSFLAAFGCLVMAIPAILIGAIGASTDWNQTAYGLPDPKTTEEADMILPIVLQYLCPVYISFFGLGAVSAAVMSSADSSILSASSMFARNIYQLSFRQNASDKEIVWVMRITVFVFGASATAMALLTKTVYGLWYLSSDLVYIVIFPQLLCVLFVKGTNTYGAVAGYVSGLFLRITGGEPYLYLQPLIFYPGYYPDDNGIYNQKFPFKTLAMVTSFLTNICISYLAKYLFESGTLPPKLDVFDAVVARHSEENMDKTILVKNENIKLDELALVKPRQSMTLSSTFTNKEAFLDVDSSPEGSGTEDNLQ

cells = type: functional
[7] = inhibitors of firefly luciferase expression or activity, dose response, H4 neuroglioma cells, luminescence (AID 1990); type: functional, cell-based
[8] = Luminescence Cell-Based Dose Response HTS to Identify Inhibitors of 5'UTR Stem-Loop Driven Prion Protein mRNA Translation in H4 Neuroglioblastoma Cells. [Related pubchem assays: 1827 (Project Summary), 1813 (Primary HTS)]; type: functional
[9] = inhibitors of SNCA 5'UTR-driven reporter translation, confirmation, H4 neuroglioma cells, luminescence (AID 1988); type: functional, cell-based
Cytochrome P450 2C19 = Cytochrome P450 2C19 (Homo sapiens, UniProt P33261); experiment: Cytochrome panel assay with activity outcomes. Panel member name: p450-cyp2c19 Compounds with AC50 equal or less than 10 uM are considered active; type: functional
[10] = target: T5, Heat shock factor protein 1 (Mus musculus, UniProt P38532); experiment: inhibition of MG132-induced HSE-luciferase signal, confirmation, cell-based, NIH3T3, luminescence, dose retest (AID 2382); type: functional;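 note: NIH3T3 fibroblasts with HSF1-driven luciferase reporter stressed by proteasome inhibitor MG132; luminescence from HSF1-driven luciferase expression after 8 hours of MG132 stress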
T5 sequence (P38532 whole entry): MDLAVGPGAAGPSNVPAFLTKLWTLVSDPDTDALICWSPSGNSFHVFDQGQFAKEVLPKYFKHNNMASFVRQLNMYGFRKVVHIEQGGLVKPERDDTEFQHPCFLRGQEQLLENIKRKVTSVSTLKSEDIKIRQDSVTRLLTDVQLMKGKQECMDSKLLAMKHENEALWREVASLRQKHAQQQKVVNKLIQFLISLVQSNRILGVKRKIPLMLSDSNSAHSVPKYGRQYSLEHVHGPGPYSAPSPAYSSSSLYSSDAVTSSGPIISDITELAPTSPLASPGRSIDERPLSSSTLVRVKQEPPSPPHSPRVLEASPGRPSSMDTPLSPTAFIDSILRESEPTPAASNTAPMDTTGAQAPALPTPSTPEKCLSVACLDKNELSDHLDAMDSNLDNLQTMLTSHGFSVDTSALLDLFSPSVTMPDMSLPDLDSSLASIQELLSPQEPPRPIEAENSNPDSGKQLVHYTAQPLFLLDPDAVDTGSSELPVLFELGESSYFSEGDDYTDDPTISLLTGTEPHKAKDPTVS

[11] = target: T6, Rac GTPase-activating protein 1 (Homo sapiens, UniProt Q9H0H5); experiment: MgcRacGAP GTPase-activating activity inhibitors, confirmation, biochemical, ADP Hunter fluorescence, primary and confirmatory (AID 624330); type: functional
T6 sequence (Q9H0H5 whole entry): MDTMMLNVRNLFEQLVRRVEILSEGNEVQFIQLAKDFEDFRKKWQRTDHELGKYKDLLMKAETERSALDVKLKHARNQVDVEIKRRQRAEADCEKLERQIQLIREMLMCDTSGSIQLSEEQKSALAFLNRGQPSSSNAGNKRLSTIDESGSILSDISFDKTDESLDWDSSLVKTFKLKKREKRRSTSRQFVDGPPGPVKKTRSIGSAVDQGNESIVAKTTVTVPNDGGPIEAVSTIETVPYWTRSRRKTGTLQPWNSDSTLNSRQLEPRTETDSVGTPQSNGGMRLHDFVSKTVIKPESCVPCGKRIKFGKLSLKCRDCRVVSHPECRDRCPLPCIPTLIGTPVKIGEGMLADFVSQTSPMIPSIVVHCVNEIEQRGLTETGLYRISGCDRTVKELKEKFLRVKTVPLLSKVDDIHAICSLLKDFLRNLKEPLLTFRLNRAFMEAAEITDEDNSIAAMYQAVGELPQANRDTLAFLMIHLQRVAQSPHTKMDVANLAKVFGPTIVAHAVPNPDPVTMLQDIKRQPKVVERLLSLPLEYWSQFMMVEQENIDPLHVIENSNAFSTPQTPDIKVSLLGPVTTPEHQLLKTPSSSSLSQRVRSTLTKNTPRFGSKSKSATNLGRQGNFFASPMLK

P388/ADR = experiment: cells; type: functional; details: Mus musculus
SN12K1 = experiment: cells; type: functional; details: Homo sapiens

Sequence of Cytochrome P450 3A4 (P08684 whole entry): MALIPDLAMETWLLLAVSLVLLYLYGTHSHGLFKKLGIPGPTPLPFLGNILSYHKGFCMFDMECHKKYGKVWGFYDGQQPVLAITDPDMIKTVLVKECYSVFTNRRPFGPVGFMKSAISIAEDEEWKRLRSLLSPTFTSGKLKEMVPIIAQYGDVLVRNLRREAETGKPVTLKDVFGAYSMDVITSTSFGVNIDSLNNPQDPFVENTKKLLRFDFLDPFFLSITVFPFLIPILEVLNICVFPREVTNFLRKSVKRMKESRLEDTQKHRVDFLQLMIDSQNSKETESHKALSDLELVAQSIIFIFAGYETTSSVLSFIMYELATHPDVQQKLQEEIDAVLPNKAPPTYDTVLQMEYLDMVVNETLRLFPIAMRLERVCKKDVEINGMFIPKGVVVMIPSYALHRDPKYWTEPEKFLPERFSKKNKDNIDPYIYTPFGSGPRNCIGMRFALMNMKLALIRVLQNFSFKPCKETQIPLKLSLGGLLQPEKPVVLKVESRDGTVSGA
Sequence of Cytochrome P450 2D6 (P10635 whole entry): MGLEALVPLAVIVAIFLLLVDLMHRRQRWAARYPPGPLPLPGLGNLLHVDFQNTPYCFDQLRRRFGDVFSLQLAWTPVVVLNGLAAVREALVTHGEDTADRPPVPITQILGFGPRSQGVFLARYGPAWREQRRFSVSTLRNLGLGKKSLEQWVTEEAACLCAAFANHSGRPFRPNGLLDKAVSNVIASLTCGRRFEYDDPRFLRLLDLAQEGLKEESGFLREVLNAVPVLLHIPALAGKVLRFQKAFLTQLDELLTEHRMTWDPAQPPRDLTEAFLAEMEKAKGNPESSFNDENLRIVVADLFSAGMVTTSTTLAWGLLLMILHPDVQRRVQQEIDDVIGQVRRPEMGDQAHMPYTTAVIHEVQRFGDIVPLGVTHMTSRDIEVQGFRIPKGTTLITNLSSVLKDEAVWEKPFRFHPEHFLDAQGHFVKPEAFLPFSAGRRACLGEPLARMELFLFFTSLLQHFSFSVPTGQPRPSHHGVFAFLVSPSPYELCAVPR
T1 sequence (P11940 whole entry): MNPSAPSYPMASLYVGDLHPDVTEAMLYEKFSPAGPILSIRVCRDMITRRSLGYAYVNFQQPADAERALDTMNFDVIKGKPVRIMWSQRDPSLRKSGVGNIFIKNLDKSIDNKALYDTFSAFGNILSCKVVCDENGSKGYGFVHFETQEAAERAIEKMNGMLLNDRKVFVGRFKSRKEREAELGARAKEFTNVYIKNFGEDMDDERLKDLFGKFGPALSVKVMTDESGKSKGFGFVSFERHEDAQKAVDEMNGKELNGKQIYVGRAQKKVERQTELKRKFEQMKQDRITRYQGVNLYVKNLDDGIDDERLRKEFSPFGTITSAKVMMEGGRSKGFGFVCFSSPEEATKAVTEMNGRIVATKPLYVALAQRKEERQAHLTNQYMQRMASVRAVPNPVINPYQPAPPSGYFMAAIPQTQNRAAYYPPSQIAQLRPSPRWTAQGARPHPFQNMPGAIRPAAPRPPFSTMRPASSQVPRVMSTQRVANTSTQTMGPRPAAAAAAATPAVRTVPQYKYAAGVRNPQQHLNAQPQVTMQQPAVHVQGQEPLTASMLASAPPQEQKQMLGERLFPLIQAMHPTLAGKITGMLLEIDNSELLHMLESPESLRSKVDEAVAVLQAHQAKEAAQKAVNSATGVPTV
Sequence of Large T antigen (P03070 whole entry): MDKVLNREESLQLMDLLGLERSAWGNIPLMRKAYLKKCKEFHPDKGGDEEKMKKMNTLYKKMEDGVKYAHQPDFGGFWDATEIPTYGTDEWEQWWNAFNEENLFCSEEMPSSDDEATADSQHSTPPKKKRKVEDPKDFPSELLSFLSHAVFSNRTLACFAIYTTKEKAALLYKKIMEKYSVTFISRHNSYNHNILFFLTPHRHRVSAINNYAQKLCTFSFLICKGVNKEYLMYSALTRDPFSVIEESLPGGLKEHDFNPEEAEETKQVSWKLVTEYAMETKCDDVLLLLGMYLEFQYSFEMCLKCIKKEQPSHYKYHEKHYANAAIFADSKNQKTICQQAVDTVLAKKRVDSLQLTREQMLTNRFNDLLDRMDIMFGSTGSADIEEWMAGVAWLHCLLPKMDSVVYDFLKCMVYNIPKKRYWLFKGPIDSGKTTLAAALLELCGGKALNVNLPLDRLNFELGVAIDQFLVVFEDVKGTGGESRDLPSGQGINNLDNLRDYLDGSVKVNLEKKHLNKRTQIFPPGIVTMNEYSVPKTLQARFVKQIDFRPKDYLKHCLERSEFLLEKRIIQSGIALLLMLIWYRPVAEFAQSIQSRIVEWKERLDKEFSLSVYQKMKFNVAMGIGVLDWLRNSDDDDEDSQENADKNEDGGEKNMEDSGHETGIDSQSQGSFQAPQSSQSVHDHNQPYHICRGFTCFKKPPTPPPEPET
Sequence of Cytochrome P450 2C19 (P33261 whole entry): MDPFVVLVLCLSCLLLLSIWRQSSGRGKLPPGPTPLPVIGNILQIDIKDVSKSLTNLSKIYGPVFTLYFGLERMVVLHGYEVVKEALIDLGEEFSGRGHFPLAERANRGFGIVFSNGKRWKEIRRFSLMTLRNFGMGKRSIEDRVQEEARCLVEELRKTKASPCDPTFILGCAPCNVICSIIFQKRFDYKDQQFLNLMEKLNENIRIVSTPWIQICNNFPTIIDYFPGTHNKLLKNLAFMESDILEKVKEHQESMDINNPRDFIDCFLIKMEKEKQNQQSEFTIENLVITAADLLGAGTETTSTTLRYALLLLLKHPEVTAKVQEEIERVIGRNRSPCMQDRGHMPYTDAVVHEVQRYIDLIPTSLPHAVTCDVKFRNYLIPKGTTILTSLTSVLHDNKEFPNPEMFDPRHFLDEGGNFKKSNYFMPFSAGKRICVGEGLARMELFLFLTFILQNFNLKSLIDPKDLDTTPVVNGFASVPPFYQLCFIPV
Sequence of Glyceraldehyde-3-phosphate dehydrogenase (P04406 whole entry): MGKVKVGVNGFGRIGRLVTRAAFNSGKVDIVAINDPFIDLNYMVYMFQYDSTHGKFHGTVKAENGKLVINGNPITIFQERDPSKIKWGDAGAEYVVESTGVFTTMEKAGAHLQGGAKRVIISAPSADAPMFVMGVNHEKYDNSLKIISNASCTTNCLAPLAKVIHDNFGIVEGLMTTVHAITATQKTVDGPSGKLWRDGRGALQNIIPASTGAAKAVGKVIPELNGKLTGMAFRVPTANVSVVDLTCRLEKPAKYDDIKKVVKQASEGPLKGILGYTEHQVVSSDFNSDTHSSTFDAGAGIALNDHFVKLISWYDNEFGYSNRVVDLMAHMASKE

## COc1ccc(-n2ccnc(SCC(=O)NC3CCCC3)c2=O)cc1
[1]
  IC50: > 66 µM (inactive)
[2]
  IC50: > 66 µM (inactive)

## COC(=O)c1cc2c(C)c(C)c3ccccn3c-2c1C(=O)OC
H9c2
  IC50: 47.9 µM (inactive)
[1]
  IC50: > 66 µM (inactive)
[2]
  IC50: > 66 µM (inactive)

## CN(C)C1=C(Cl)C(=O)N(c2ccc(Cl)nc2)C1=O
[3]
  IC50: > 50 µM (inconclusive)

## CN(C)C(=O)c1c(-c2ccccc2)oc2ccc(O)cc12
Large T antigen
  IC50: 46.6 µM (active)

## CN(C)c1ccc(NS(=O)(=O)c2cccc(Cl)c2)cc1
Large T antigen
  IC50: 28.7 µM (active)

## Cc1ccc(NC(=O)C2CCN(S(=O)(=O)c3c(C)noc3/C=C/c3ccco3)CC2)nc1
[4]
  AC50: 5.56 µM (active)

## Cc1ccc(N2C(=O)CC(Sc3ccccc3C(=O)O)C2=O)c([N+](=O)[O-])c1 (centres undefined)
[1]
  IC50: > 66 µM (inactive)
[2]
  IC50: > 66 µM (inactive)

## FC(F)(F)c1ccccc1-c1cc(NCc2ccccc2)ncn1
Cytochrome P450 2D6
  AC50: 39.8 µM (inconclusive)
Cytochrome P450 3A4
  AC50: inconclusive

## O=C(c1ccc2c(c1)OCCO2)C1CCN(S(=O)(=O)c2ccccc2F)CC1
[5]
  CC50: > 50 µM (active)
Cytochrome P450 2D6
  AC50: 0.0316 µM (inconclusive)
Cytochrome P450 1A2
  AC50: 5.01 µM (inconclusive)
Cytochrome P450 3A4
  AC50: inconclusive

## COc1cc(/C=C(\C#N)c2nc3ccccc3n2C)cc(OC)c1O
Large T antigen
  IC50: 9.81 µM (active)

## Cc1ccc(C)c(-c2nc3ccc(N)cc3[nH]2)c1
Large T antigen
  IC50: 83.7 µM (active)

## CN1CCCC(CC2Oc3ccccc3Sc3ccccc32)C1 (centres undefined)
[6]
  IC50: 15.8 µM (active)

## Cc1ccc(-c2nnc(C)c(N3CCCC3)n2)cc1
cells
  IC50: 13.2 µM (active)

## CCO[C@H]1OC(C(=O)Nc2ccccc2)=C[C@@H](c2ccc(Br)cc2)[C@@H]1CCCO
[5]
  CC50: 17.6 µM (active)
[7]
  EC50: > 120 µM (not active)
[8]
  EC50: > 120 µM (not active)
[9]
  EC50: > 120 µM (not active)

## CCCc1cc2c(=O)c(-c3ccccn3)c(C)oc2cc1O
[6]
  IC50: 12.3 µM (active)

## COc1ccc(C2=CC(c3ccc(F)cc3)n3nnnc3N2)cc1 (centres undefined)
[1]
  IC50: > 66 µM (inactive)
[2]
  IC50: > 66 µM (inactive)

## Cn1c(-c2ccccc2O)cc2ccccc21
[6]
  IC50: 13.2 µM (active)

## c1ccc(COC2CCCN(Cc3nc(-c4cccs4)no3)C2)nc1 (centres undefined)
[1]
  IC50: > 66 µM (inactive)
[2]
  IC50: > 66 µM (inactive)

## CCCC(=O)Nc1nc2n(n1)C(c1ccccc1)CC(=O)N2 (centres undefined)
Cytochrome P450 3A4
  AC50: inconclusive

## O=C(c1cccc(F)c1)N1CCC2(CC1)CCN(c1ncccn1)CC2
Cytochrome P450 2C19; read-out: AC50
  AC50: 39.8 µM (inconclusive)
Cytochrome P450 2D6
  AC50: 15.8 µM (inconclusive)
Cytochrome P450 1A2
  AC50: 10 µM (inconclusive)
Cytochrome P450 3A4
  AC50: inconclusive

## COc1cccc(-n2nc(-c3ccnn3-c3ccccc3)c(=O)n(C)c2=O)c1
[7]
  EC50: 25.3 µM (active)
[8]
  EC50: > 120 µM (not active)
[9]
  EC50: > 120 µM (not active)

## O=C(Nc1cccc(F)c1)N1CC2(CCN(C(=O)Oc3ccccc3)CC2)C1
Cytochrome P450 1A2
  AC50: 12.6 µM (inconclusive)
Cytochrome P450 3A4
  AC50: inconclusive

## COc1ccc(Sc2nc(-c3ccccc3)ncc2OC)cc1
[7]
  EC50: 18.3 µM (active)
[8]
  EC50: > 120 µM (not active)
[9]
  EC50: 16 µM (active)

## O=C1C(Cl)=C(N2CCN(c3ccccc3)CC2)C(=O)N1c1ccc(Cl)nc1
[3]
  IC50: > 50 µM (inconclusive)

## CSc1nsc(SCC(=O)NCc2ccccc2)n1
[1]
  IC50: > 66 µM (inactive)
[2]
  IC50: > 66 µM (inactive)

## CCN1CCCC1CNC(=O)C(=O)Nc1ccc(OC)cc1 (centres undefined)
Cytochrome P450 2C19
  AC50: inconclusive
Cytochrome P450 3A4
  AC50: inconclusive

## CCC(CC)C(=O)c1c[nH]c(C(=O)NCCCN2CCOCC2)c1
Cytochrome P450 1A2
  AC50: 25.1 µM (inconclusive)
Cytochrome P450 3A4
  AC50: inconclusive

## CCN1CCN(/C=N/c2nc3c(s2)CCCC3)CC1
[8]
  EC50: 8.93 µM (active)
[10]
  EC50: < 0.16 µM (active)
[9]
  EC50: 7.71 µM (active)
[4]
  AC50: 6.42 µM (active)

## O=C1C=C(Nc2ccc(O)cc2)CC(c2ccco2)C1 (centres undefined)
Large T antigen
  IC50: 9.14 µM (active)
[11]
  IC50: 19.6 µM (active)

## Cc1[nH]c(=O)[nH]c(=O)c1N(CCF)CCCl [FLUORODOPAN]
P388/ADR
  GI50: 330 µM (inactive)
SN12K1
  GI50: 249 µM (inactive)
